Measured values taken from patent US12139481B2, “Compositions comprising macrocycle derivatives incorporating bridged macrocycles and methods of producing and using same” (Southwestern Oklahoma State University, priority 2015, dated 2024).

Key:
[1] = tested on: Cryptococcus neoformans ATCC 90113; assay: Antimicrobial microdilution assay against Cryptococcus neoformans (modified CLSI/NCCLS, optical density); assay type: cell-based; conditions: for X more potent than Amphotericin B: C. neoformans, ratio of molar IC50 to Amphotericin B; for C. neoformans IC50 / IC50: in vitro, C. neoformans ATCC 90113; for IC50: read-out: C. neoformans IC50 (mol/L)
How it was run: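 Fungicidal endpoint taken by subculturing 5 μL from each clear well onto agar, MFC being the lowest concentration with no regrowth. Duplicate wells of serially diluted compound (20% DMSO/saline) in RPMI pH 6.0, read at 630 nm pre- and post-incubation, under modified CLSI methods. IC50 means 50% growth inhibition against controls.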

[2] = tested on: L. donovani promastigotes; assay: Antileishmanial Alamar Blue assay on promastigotes; assay type: cell-based, Leishmania donovani; conditions: for X more potent than Pentamidine: L. donovani, ratio of molar IC50 to Pentamidine; for L. donovani IC50 / IC50: promastigotes, 48 hours, Alamar Blue; for IC50: read-out: L. donavani IC50
How it was run: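 Alamar Blue fluorescence (544/590 nm) quantified growth after 48 hours at 26° C of compound-treated promastigotes. Parasites were seeded at 5×10^5/mL in RPMI 1640 plus 10% FCS; drug range 50-3.1 μg/mL, and IC50 derived by plotting percent growth against test concentration.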

C. krusei ATCC 6258 = assay: Antifungal broth dilution assay against C. krusei (modified CLSI); assay type: cell-based, Candida krusei; conditions: for X more potent than Amphotericin B: C. krusei, ratio of molar IC50 to amphotericin B; for C. krusei IC50 / IC50: in vitro; for IC50: read-out: C. krusei IC50 (mol/L)
How it was run: (§1)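 Growth read by optical density at 530 nm, duplicate wells, 1% final DMSO. Staphylococcus spp.: Mueller-Hinton pH 7.3, 5.0×10^5 CFU/ml, 35 °C for 16-20 h; Candida spp.: RPMI/dextrose/glutamine/MOPS pH 6.0, 1.5×10^3 CFU/ml, 35 °C for 46-50 h. Reported values are 50% inhibition versus controls, no-growth MIC, and killing MFC/MBC.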

[3] = tested on: S. mansoni newly transformed schistosomula (NTS); assay: In vitro testing on Schistosoma mansoni newly transformed schistosomula (NTS), viability score; assay type: cell-based; conditions: 72 h
Description: Assays were prepared according to the laboratory SOP for the lab of Dr. Jennifer Keiser (Swiss Tropical and Public Health Institute, Basel). Harvested S. mansoni cercariae (Liberian strain) obtained from infected Biomphalaria glabrata snails were mechanically transformed into newly transformed schistosomula (NTS) following standard procedures. Briefly, snails were placed under light in the morning to stimulate cercarial shedding. The cercarial suspension was collected, cooled for 30 minutes, and then vigorously pipetted (30×) and vortexed (3 minutes). The suspension was then placed in the incubator (37° C. and 5% CO2) for 30 minutes, and the vortexing and pipetting steps were repeated. The transformation was complete at this point, and the tails were separated from the heads by rinsing three times with cold HBSS. NTS were then incubated overnight in culture medium overnight and used the next day.
The original stock compounds (which were not already dissolved) were dissolved in dimethyl sulfoxide (DMSO) to a concentration of 10 mM. 100 NTS were placed in each well of a 96-well plate with culture medium, and the test compound for a final well volume of 250 μl. […] NTS incubated with no more than 1% DMSO served as control. NTS were kept in an incubator at 37° C. and 5% CO2 for up to 72 hours. After 72 hours, the condition of the NTS was microscopically evaluated using a scale from 3 (normal activity and no tegument alteration) to 0 (dead, completely granulated).

C. glabrata ATCC 90030 = assay: Antifungal broth dilution assay against C. glabrata (modified CLSI); assay type: cell-based, Candida glabrata; conditions: for C. glabrata IC50 / IC50: in vitro; for IC50: converted with molecular weight; for X more potent than Amphotericin B: molar IC50 ratio versus amphotericin B
How it was run: as §1

[4] = tested on: Plasmodium falciparum D6 clone (Sierra Leon, chloroquine-sensitive); assay: In vitro antimalarial assay, chloroquine-sensitive D6 clone; assay type: cell-based; conditions: D6 clone; for X more potent than chloroquine: molar IC50 ratio versus chloroquine; for IC50: converted with molecular weight, read-out: P. falciparum D6 IC50
How it was run: (§2)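 Parasites grown in type A human RBCs; assay run on infected cell suspension at 2% parasitemia and 2% hematocrit, in duplicate at several concentrations. IC50 taken from dose curves, per the Makler method, with DMSO as vehicle; Vero cytotoxicity run in parallel to derive a selectivity index.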

[5] = tested on: Plasmodium falciparum W2 clone (Indochina, chloroquine-resistant); assay: In vitro antimalarial assay, chloroquine-resistant W2 clone; assay type: cell-based; conditions: W2 clone; for X more potent than chloroquine: molar IC50 ratio versus chloroquine; for IC50: converted with molecular weight, read-out: P. falciparum W2 IC50
How it was run: as §2

[6] = tested on: Staphylococcus aureus ATCC 29213; assay: Antibacterial broth dilution assay against S. aureus (modified CLSI); assay type: cell-based
How it was run: as §1

[7] = tested on: methicillin-resistant S. aureus ATCC 33591 (MRS); assay: Antibacterial broth dilution assay against MRSA (modified CLSI); assay type: cell-based, Staphylococcus aureus
Description: General Experimental Procedures. All organisms were obtained from the American Type Culture Collection (Manassas, VA) and include the fungi Candida albicans ATCC 90028, C. glabrata ATCC 90030, C. krusei ATCC 6258, and Cryptococcus neoformans ATCC 90113, and the bacteria Staphylococcus aureus ATCC 29213 and methicillin-resistant S. aureus ATCC 33591 (MRS). All organisms were tested using modified versions of the CLSI (formerly NCCLS) methods. For all organisms, optical density was used to monitor growth (NCCLS, Reference Method for Broth Dilution Antifungal Susceptibility Testing of Yeasts; Approved Standard M27-A2. National Committee on Clinical Laboratory Standards, 2002 22 (15); and NCCLS, Methods for Dilution Antimicrobial Susceptibility Tests for Bacteria that Grow Aerobically; Approved Standard, Seventh Edition M7-A7. National Committee on Clinical Laboratory Standards, 2006. 26(2)).
Samples (dissolved in DMSO) were serially-diluted in 20% DMSO/saline and transferred (10 μL) in duplicate to 96 well flat bottom microplates. Inocula were prepared by correcting the OD630 of microbe suspensions in incubation broth [RPMI 1640/0.2% dextrose/0.03% glutamine/MOPS @ pH 6.0 (Cellgro) for Candida spp., Sabouraud Dextrose for C. neoformans, and cation-adjusted Mueller-Hinton (Difco) @ pH 7.3 for Staphylococcus spp. to afford an assay volume of […] and final target inocula of: Candida spp. and C. neoformans: 1.5×10^3, and Staphylococcus spp.: 5.0×10^5 CFU/ml. Final sample test concentrations were 1/100th the DMSO stock concentration. […] All organisms were read at either 530 nm using the Biotek Powerwave XS plate reader (Bio-Tek Instruments, Vermont) prior to and after incubation: Candida spp. at 35° C. for 46-50 h, Staphylococcus spp. at 35° C. for 16-20 h, and C. neoformans at 35° C. for 70-74 h. IC50s (concentrations that afford 50% inhibition relative to controls) were calculated using XLfit 4.2 software (IDBS, Alameda, CA) using fit model 201. The MIC is defined as the lowest test concentration that allows no detectable growth. Minimum fungicidal or bactericidal concentrations were determined by removing 5 μl from each clear (or blue) well, transferring to fresh media, and incubating as previously mentioned. The MFC/MBC is defined as the lowest test concentration that kills the organism (allows no growth).
Primary Analysis. Samples were tested in duplicate at one test concentration (50 μg/mL), and percent inhibitions were calculated relative to blank and growth controls. Samples showing 50% inhibition in at least one test organism were selected for dose response (Secondary) studies.
Secondary Analysis. Extracts from the Primary Assay, and first-run pure compounds and column fractions were tested in duplicate at 3 test concentrations (5-fold dilutions). Samples dissolved to 20 mg/mL in DMSO were tested at 200, 40, and 8 μg/mL. Samples dissolved to 2 mg/mL in DMSO were tested at 20, 4, and 0.8 μg/mL.

[8] = molar IC50 ratio versus ciprofloxacen

SMILES | X more potent than Amphotericin B [1] | C. neoformans IC50 [1] [µg/mL] | IC50 [1] [µM] | X more potent than Pentamidine [2] | L. donovani IC50 [2] [µg/mL] | IC50 [2] [µM] | X more potent than Amphotericin B (C. krusei ATCC 6258) | C. krusei IC50 (C. krusei ATCC 6258) [µg/mL] | IC50 (C. krusei ATCC 6258) [µM] | Effect at 72 h (%) ([3]; NTS S. mansoni, 33 μM) | C. glabrata IC50 (C. glabrata ATCC 90030) [µg/mL] | IC50 (C. glabrata ATCC 90030) [µM] | X more potent than Amphotericin B (C. glabrata ATCC 90030) | P. falciparum D6 IC50 [4] [µg/mL] | X more potent than chloroquine [4] | P. falciparum W2 IC50 [5] [µg/mL] | X more potent than chloroquine [5] | further results
CN1CCN2CCN(CC1)CCN(Cc1cc(CN3CCN4CCN(C)CCN(CC4)CC3)cc(CN3CCN4CCN(C)CCN(CC4)CC3)c1)CC2 [BNS017, tris-CB-cyclens] | 2.56 | 0.070 | 0.0932 | 0.16 | 25.46 | 33.9 | 0.19 | 5.850 | 7.79 | 0.00 |  |  |  |  |  |  |  | 
CC(=O)[O-].CC(=O)[O-].CC(=O)[O-].CN1CCN2CCN(CC1)CCN(Cc1cc(CN3CCN4CCN(C)CCN(CC4)CC3)cc(CN3CCN4CCN(C)CCN(CC4)CC3)c1)CC2.F[P-](F)(F)(F)(F)F.F[P-](F)(F)(F)(F)F.F[P-](F)(F)(F)(F)F.F[P-](F)(F)(F)(F)F.F[P-](F)(F)(F)(F)F.F[P-](F)(F)(F)(F)F.[Co+3].[Co+3].[Co+3] [BNS20, [Co3(tris-CB-Cyclens)(OAc)3][PF6]6] | 0.47 | 1.000 | 0.506 |  |  |  |  | 0.980 | 0.496 | 18.02 | 4.720 | 2.39 | 0.59 |  |  |  |  | 
CC(=O)[O-].CC(=O)[O-].CC(=O)[O-].F[P-](F)(F)(F)(F)F.F[P-](F)(F)(F)(F)F.F[P-](F)(F)(F)(F)F.[Co+2].[Co+2].[Co+2].c1c(CN2CCNCCN3CCN(CC3)CC2)cc(CN2CCNCCN3CCN(CC3)CC2)cc1CN1CCNCCN2CCN(CC2)CC1 [CDG021, [Co3(tris-SB-Cyclens)(OAc)3][PF6]3] | 0.45 | ≤ 0.800 | 0.534 |  |  |  | 0.53 | 4.200 | 2.8 | 11.71 | 0.800 | 0.534 | 2.66 |  |  |  |  | times more potent than AMB (C. glabrata ATCC 90030): 2.66
CC(=O)[O-].F[P-](F)(F)(F)(F)F.[Zn+2].c1ccc(CN2CCCN3CCN(CCCN(Cc4ccccc4)CC3)CC2)cc1 [RM41, [Zn(Bn2Bcyclam)(OAc)]PF6] |  |  |  | 0.38 | 9.51 |  |  |  |  | 100.00 |  |  |  | 0.2315 | 0.11 | 0.4010 | 1.14 | Effect at 72 h (%) ([3]; NTS S. mansoni at 10 μM): 17.24%
CC(=O)[O-].CC(=O)[O-].CN1CCCN2CCN(CCCN(Cc3cccc(CN4CCCN5CCN(C)CCCN(CC5)CC4)c3)CC2)CC1.F[P-](F)(F)(F)(F)F.F[P-](F)(F)(F)(F)F.[Zn+2].[Zn+2] [RM51, [Zn2(m-CB-Cyclams)(OAc)2][PF6]2] | 0.14 | 1.850 |  | 0.30 | 19.82 |  |  |  |  | 0.00 |  |  |  |  |  |  |  | S. aureus IC50 ([6]; in vitro): 6.17 µg/mL; X more potent than ciprofloxacen [6, 8]: 0.05; MRSa IC50 ([7]; in vitro): 3.190 µg/mL; X more potent than ciprofloxacen [7, 8]: 0.07
CC(=O)[O-].CN1CCCN2CCN(CCCN(Cc3ccccc3)CC2)CC1.F[P-](F)(F)(F)(F)F.[Cu+2] [RM56A, [Cu(Bn1Me1Bcyclam)(OAc)]PF6] |  |  |  | 0.10 | 33.32 | 55.7 |  |  |  | 18.02 |  |  |  | 0.7145 | 0.03 | 0.6747 | 0.60 | IC50 [4]: 1.2 µM; IC50 [5]: 1.13 µM
CC(=O)[O-].F[P-](F)(F)(F)(F)F.[Ni+2].c1ccc(CN2CCCN3CCN(CCCN(Cc4ccccc4)CC3)CC2)cc1 [TC09, [Ni(Bn2Bcyclam)(OAc)]PF6] |  |  |  | 0.55 | 6.51 | 9.73 | 0.22 | 4.520 | 6.75 | 43.24 |  |  |  | 0.552 | 0.04 | 0.8876 | 0.51 | IC50 [4]: 0.825 µM; IC50 [5]: 1.33 µM
CC(=O)[O-].CC(=O)[O-].CN1CCCN2CCN(CCCN(Cc3ccc(CN4CCCN5CCN(C)CCCN(CC5)CC4)cc3)CC2)CC1.F[P-](F)(F)(F)(F)F.F[P-](F)(F)(F)(F)F.[Cu+2].[Cu+2] [TJH384A, [Cu2(p-CB-cyclams)(OAc)2](PF6)2] | 0.38 | 0.700 | 0.626 |  |  |  | 0.25 | 6.760 | 6.05 | 5.41 | 14.590 | 13.1 | 0.11 |  |  |  |  | 
